In the supplement of paper PMC11061612:

Key:
Assay in all cases: Bliss excess, mean over the matrix (fraction); higher = more synergy
[1] = system: HeLa (Cervical Carcinoma)
Method in brief: (§1)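 After 24 hours at 37°C and 5% CO2 in 1536-well plates, cells in DMEM/F12 or RPMI plus 10% FBS received two-drug dose matrices for 72 hours. Viability came from CellTiter-Glo 2.0 luminescence and was scaled as inhibition, anchored at 0 by vehicle wells and at 1 by blank wells. Combination Emax is taken as the second-highest inhibition in the matrix, and Bliss excess as the observed combination effect less EA + EB − EA·EB, with EA and EB the single-agent effects.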

BE2-M17 (Neuroblastoma) = system: BE2-M17 (Neuroblastoma)
Method in brief: as §1

[2] = system: Detroit562 (Head and Neck Carcinoma)
Method in brief: as §1

EW-11 (Ewing's Sarcoma) = system: EW-11 (Ewing's Sarcoma)
Method in brief: as §1

[3] = system: ESS-1 (Other Solid Carcinomas)
Method in brief: as §1

[4] = system: CAL-33 (Oral Cavity Carcinoma)
Method in brief: as §1

A673 (Ewing's Sarcoma) = system: A673 (Ewing's Sarcoma)
Method in brief: as §1

[5] = system: SAS (Oral Cavity Carcinoma)
Method in brief: as §1

MPP-89 (Mesothelioma) = system: MPP-89 (Mesothelioma)
Method in brief: as §1

KS-1 (Glioblastoma) = system: KS-1 (Glioblastoma)
Method in brief: as §1

[6] = system: L-428 (Hodgkin's Lymphoma)
Method in brief: as §1

[7] = system: NCI-H1568 (Lung Adenocarcinoma)
Method in brief: as §1

[8] = system: BE-13 (T-Lymphoblastic Leukemia)
Method in brief: as §1

[9] = system: NCI-H524 (Small Cell Lung Carcinoma)
Method in brief: as §1

[10] = system: ALL-PO (B-Lymphoblastic Leukemia)
Method in brief: as §1

GAMG (Glioblastoma) = system: GAMG (Glioblastoma)
Method in brief: as §1

[11] = system: NUGC-4 (Gastric Carcinoma)
Method in brief: as §1

[12] = system: OVCAR-5 (Ovarian Carcinoma)
Method in brief: as §1

[13] = system: LCLC-97TM1 (Non-Small Cell Lung Carcinoma)
Method in brief: as §1

[14] = system: Hs-746T (Gastric Carcinoma)
Method in brief: as §1

Structure (SMILES)	Bliss excess [1]	Bliss excess (BE2-M17 (Neuroblastoma))	Bliss excess [2]	Bliss excess (EW-11 (Ewing's Sarcoma))	Bliss excess [3]	Bliss excess [4]	Bliss excess (A673 (Ewing's Sarcoma))	Bliss excess [5]	Bliss excess (MPP-89 (Mesothelioma))	Bliss excess (KS-1 (Glioblastoma))	Bliss excess [6]	Bliss excess [7]	Bliss excess [8]	Bliss excess [9]	Bliss excess [10]	Bliss excess (GAMG (Glioblastoma))	Bliss excess [11]	Bliss excess [12]	Bliss excess [13]	Bliss excess [14]
C[C@@H](c1ccc2nccn2c1)n1nnc2ncc(-c3cnn(C)c3)nc21 [Savolitinib] + Cc1c2c(nn1C)CSCc1cc(n(C)n1)CSc1cc(c3ccccc3c1)OCCCc1c(C(=O)O)n(C)c3c-2c(Cl)ccc13 [AZD5991] (first compound max 1 µM, 7x7, partner max 1 µM)	-0.0696	-0.0285	0.0497	0.0361	-0.0432	-0.0423	0.0471	-0.0341	-0.0423	-0.0509	-0.0296	-0.05	0.065	-0.0115	-0.0254	-0.0209	-0.0348	-0.0536	-0.0311	-0.0489
Cc1cc2ncnn2cc1Nc1ncc2c(n1)n(C1CCOCC1)c(=O)n2C [AZD7648] + C=CCn1c(=O)c2cnc(Nc3ccc(N4CCN(C)CC4)cc3)nc2n1-c1cccc(C(C)(C)O)n1 [AZD1775] (first compound max 10 µM, partner max 1 µM)	-0.0542	-0.0837	0.0575	-0.029	0.0525	0.0238	-0.0306	0.0079	0.0215	0.0297	0.0144	-0.0763	0.0217	-0.0254	0.0488	-0.005	-0.0417	-0.0038	0.0234	-0.0827
